Experimental data: PubChem BioAssay (NCI)
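Each compound was tested at five concentrations against cells in 96-well plates for 48 hours. At the TGI there is no net growth.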

How the values were obtained:
Test in all cases: NCI tumour cell line growth inhibition, 48 h
A549 NSCLC = tested on: A549 NSCLC
MDA-N = tested on: MDA-N
IGROV1 ovarian = tested on: IGROV1 ovarian
RPMI-8226 leukemia = tested on: RPMI-8226 leukemia
U251 CNS = tested on: U251 CNS
NCI-H522 lung = tested on: NCI-H522 lung
SK-OV-3 ovarian = tested on: SK-OV-3 ovarian
T-47D breast = tested on: T-47D breast
SF-539 CNS = tested on: SF-539 CNS
LOX IMVI melanoma = tested on: LOX IMVI melanoma
HL-60(TB) leukemia = tested on: HL-60(TB) leukemia
MOLT-4 leukemia = tested on: MOLT-4 leukemia
MALME-3M melanoma = tested on: MALME-3M melanoma
UACC-62 melanoma = tested on: UACC-62 melanoma
OVCAR-8 ovarian = tested on: OVCAR-8 ovarian
CAKI-1 renal = tested on: CAKI-1 renal
NCI-H460 lung = tested on: NCI-H460 lung
HCC-2998 colon = tested on: HCC-2998 colon
HOP-62 NSCLC = tested on: HOP-62 NSCLC
UO-31 renal = tested on: UO-31 renal
KM12 colon = tested on: KM12 colon
OVCAR-4 ovarian = tested on: OVCAR-4 ovarian
A498 renal = tested on: A498 renal
SF-268 CNS = tested on: SF-268 CNS
MCF7 breast = tested on: MCF7 breast
M14 melanoma = tested on: M14 melanoma
OVCAR-5 ovarian = tested on: OVCAR-5 ovarian
SF-295 CNS = tested on: SF-295 CNS
UACC-257 melanoma = tested on: UACC-257 melanoma
SNB-75 CNS = tested on: SNB-75 CNS
TK-10 renal = tested on: TK-10 renal
HS 578T breast = tested on: HS 578T breast
K-562 leukemia = tested on: K-562 leukemia
CCRF-CEM leukemia = tested on: CCRF-CEM leukemia
SK-MEL-28 melanoma = tested on: SK-MEL-28 melanoma
HCT-116 colon = tested on: HCT-116 colon
EKVX NSCLC = tested on: EKVX NSCLC
PC-3 prostate = tested on: PC-3 prostate
COLO 205 colon = tested on: COLO 205 colon
SK-MEL-5 melanoma = tested on: SK-MEL-5 melanoma
SW-620 colon = tested on: SW-620 colon
OVCAR-3 ovarian = tested on: OVCAR-3 ovarian
HT29 colon = tested on: HT29 colon
MDA-MB-435 = tested on: MDA-MB-435
NCI-H226 lung = tested on: NCI-H226 lung
HCT-15 colon = tested on: HCT-15 colon
SR leukemia = tested on: SR leukemia
SK-MEL-2 melanoma = tested on: SK-MEL-2 melanoma
DU-145 prostate = tested on: DU-145 prostate
SN12C renal = tested on: SN12C renal
HOP-92 NSCLC = tested on: HOP-92 NSCLC
NCI-H23 lung = tested on: NCI-H23 lung
NCI/ADR-RES ovarian = tested on: NCI/ADR-RES ovarian
MDA-MB-231 breast = tested on: MDA-MB-231 breast
RXF 393 renal = tested on: RXF 393 renal
SNB-19 CNS = tested on: SNB-19 CNS
ACHN renal = tested on: ACHN renal
786-0 renal = tested on: 786-0 renal

Measured: TGI

CNC1=C(C)C(=O)C2=C(C1=O)C(COC(N)=O)C1(OC)C3NC3CN21 (stereo not drawn)
7.4 µM: UO-31 renal
0.971 µM: SNB-75 CNS
2.35 µM: A498 renal
1.82 µM: HCC-2998 colon
11 µM: OVCAR-8 ovarian
10.6 µM: MCF7 breast
41.8 µM: PC-3 prostate
0.268 µM: SK-MEL-5 melanoma
3.61 µM: MALME-3M melanoma
2.38 µM: HOP-62 NSCLC
10.5 µM: SF-295 CNS
4.01 µM: HT29 colon
6.43 µM: SK-MEL-28 melanoma
4.27 µM: SK-MEL-2 melanoma
25.7 µM: OVCAR-4 ovarian
1.41 µM: LOX IMVI melanoma
1.92 µM: SF-539 CNS
15 µM: U251 CNS
2.22 µM: NCI-H522 lung
4.66 µM: NCI-H226 lung
66.7 µM: RPMI-8226 leukemia
36.5 µM: SK-OV-3 ovarian
2.78 µM: CAKI-1 renal
18.1 µM: T-47D breast
1.55 µM: UACC-62 melanoma
30.5 µM: HS 578T breast
21.6 µM: OVCAR-3 ovarian
2.04 µM: KM12 colon
2.01 µM: M14 melanoma
3.52 µM: HCT-15 colon
91.2 µM: IGROV1 ovarian
50.2 µM: OVCAR-5 ovarian
5.65 µM: MDA-N
3.64 µM: UACC-257 melanoma
94.1 µM: TK-10 renal
5.67 µM: MDA-MB-435
12.9 µM: SF-268 CNS
1.35 µM: COLO 205 colon
> 100 µM: A549 NSCLC | HL-60(TB) leukemia | MOLT-4 leukemia | K-562 leukemia | CCRF-CEM leukemia | HCT-116 colon | EKVX NSCLC | SW-620 colon | SR leukemia
0.251 µM: NCI-H460 lung

C1=C(N2CCOCC2)/C(=C2\SC(=Nc3ccccc3)C(=Nc3ccccc3)N2c2ccccc2)CC1
65.4 µM: SNB-75 CNS
69 µM: SK-OV-3 ovarian
48.9 µM: UACC-62 melanoma
not listed: A549 NSCLC | SF-539 CNS | LOX IMVI melanoma | HL-60(TB) leukemia | HCC-2998 colon | UO-31 renal | OVCAR-4 ovarian | SF-268 CNS | MCF7 breast | OVCAR-5 ovarian | UACC-257 melanoma | TK-10 renal | EKVX NSCLC | SW-620 colon | NCI-H226 lung | RXF 393 renal | SNB-19 CNS | ACHN renal | 786-0 renal
> 100 µM: all other assays above

O=C1C2=Cc3ccccc3CCN2c2ccc([N+](=O)[O-])cc21
97.7 µM: UO-31 renal
not listed: SK-OV-3 ovarian | T-47D breast | SK-MEL-2 melanoma
> 100 µM: all other assays above

O=C(CC(C(=O)c1ccsc1)c1cccs1)c1ccsc1 (stereo not drawn)
84.3 µM: T-47D breast
not listed: NCI-H522 lung | SF-539 CNS | HS 578T breast | HCT-116 colon | OVCAR-3 ovarian | HOP-92 NSCLC | RXF 393 renal
> 100 µM: all other assays above
